Data published in patent publication US10174015B2, “Substituted heterocyclic derivative, preparation method and use thereof” (Xiamen University, priority 2014, dated 2019).
Where two headings read alike, the source gives them in different places.

Assays:
[1] = tested on: inflammatory pain induced by carrageenan and neuropathic pain caused by sciatic nerve ligation; settings: cited from earlier work
[2] = tested on: NAAA; settings: NAAA inhibitor, literature value; cited from earlier work
[3] = Stability assays at acidic and basic conditions; format: physicochemical
Experimental: The sample containing the compound to be tested was then incubated in a constant temperature shaker at 37° C. At different time points (0 min, 10 min, 30 min, 1 h, 2 h, 4 h, 6 h, 12 h, 24 h), 50 μL sample was taken and added to 150 μL precooled methanol (containing the internal standard E8, 1 nmol/sample), wherein three parallel samples were prepared for each time point. The samples were then vertically mixed well, and transferred to a sample vial. LC-MS/MS was used to measure the peak area at different time points, Analyst® version 1.4.1. software was used to analyze chromatographic peak, and the content of the target compound was calculated based on the standard curve.

[4] = Assay on drug metabolism in rat; format: in vivo, SD rats; settings: SD, plasma, iv, 30 mg/Kg via jugular vein
Description: 50 SD rats (purchased from Shanghai SLAC Laboratory Animal Co., Ltd) were divided into 5 groups randomly, 10 rats per group. After anesthesia with ether, rat was fixed on the operating table on its back, and was shaved at the operative site of neck. After disinfection with 75% alcohol, the neck was cut about 1.5 cm longitudinally, muscle tissues and nervi vascularis surrounding trachea were separated by blunt dissection, and carotid artery was separated by blunt dissection. Ligation was performed at distal end, an artery clamp was used at proximal part, and the distance between them was about 1 cm. A small cut was made with a pair of ophthalmic scissors at proximal part close to the ligated site, and arterial duct was introduced from the small cut to the proximal part, the artery clamp was loosened, the arterial ostium was clamped with smooth forceps, whilst the arterial duct was delivered to heart ventricle. Upon the introduction of the arterial duct into heart ventricle, the blood vessel was ligated. By using the same intubation method for artery, intubation was applied to jugular veins. After intubation, a tubule filled with heparin sodium was drawn out from artery and vein, which passed through the skin under the ear of the rat and drawn out from the dorsal part skin of the neck of the rat, and the tubule was fixed well. The muscles and skin were sutured at the surgical site of the rat, and normal saline containing heparin sodium was injected from time to time via the tubule connecting the artery and the vein to prevent tubule obstruction due to blood coagulation. The rat was placed in a warm and clean cage provided with water and food, waiting for the rat to wake up naturally.
After the rat regained consciousness and acted normally, assay on metabolic stability of compounds was performed in the rat. All the agents to be injected (including compounds to be tested and control drug) were dissolved in a mixed solvent of PEG400:Tween 80:normal saline (at a volume ratio of 5:5:90), at a concentration of 5 mg/mL. The agent was injected slowly at a dose of 30 mg/Kg via the tubule drawn out from the jugular vein. After administration, the time was recorded, and blood was collected from the tubule drawn out from carotid artery at 2, 5, 10, 20, 30, 60, 240, 360, and 720 min, in an amount of 200 μL for each time. The whole blood was placed in commercially available heparin sodium blood-collecting tube (Jiangxi Jingzhi Medical Equipment Co., Ltd.), centrifuged at 1800 g for 15 min. To the supernatant plasma, 150 μL pre-cooled methanol stopping buffer (containing internal standard E8, 1 nmol/sample) was added, vertically mixed well, and then centrifuged at 4° C., 12000 g for 10 min. The supernatant was transferred to a sample vial, the target compound was detected by LC-MS/MS, and the content of the compound was calculated by virtue of standard curve.

[5] = Stability assay in rat plasma; format: in vitro ADME; settings: 37° C.
Experimental: To each of several tubes sub-packaged with rat plasma, PBS solution was added in a volume equal to a quarter of plasma volume, and the resultant mixture was mixed well. […] At different time points (0, 10, 30, 60, 120, 240, 360, 720, 1440 min), 50 μL plasma sample was taken and added to 150 μL precooled methanol (containing the internal standard compound E8, with a structure of
[drawing 117] and a name of 1-(2-Biphenyl-4-yl)ethyl-carbonyl pyrrolidine, 1 nmol/sample), wherein three parallel samples were prepared for each time point. The samples were then vertically mixed well, and centrifuged at 4° C., 12000 g for 10 min. The supernatant was transferred to a sample vial. LC-MS/MS was used to measure the peak area at different time points, Analyst® version 1.4.1. software was used to analyze chromatographic peak, and the content of the target compound was calculated by virtue of the standard curve.

[6] = tested on: inflammatory abdominal pain caused by acetic acid; assay: Abdominal inflammatory pain caused by acetic acid; format: in vivo, Kunming mice; settings: mice, 10 mg/kg i.p. 1 h before acetic acid; indometacin 20 mg/kg (FIG. 4)
Experimental: (§1) In the Experimental example, compounds to be evaluated or compounds to be tested or test compounds used are the Compounds 1-46 prepared in the Examples according to the invention. In the Experimental example, all the agents for injection, including compounds to be evaluated or compounds to be tested or test compounds, and positive control drug, were dissolved in a mixed solvent of PEG400:Tween 80:normal saline (at a volume ratio of 5:5:90), at a concentration of 5 mg/mL.
Typical model for studying inflammation-induced visceral pain medically was used to evaluate the therapeutic effects of compounds on inflammatory visceral pain. The model can represent general visceral pain including, but not only limited to appendicitis, gastritis, pancreatitis, prostatitis, myocarditis, interstitial cystitis, pain caused by hepatic, gall or kidney stone, irritable bowel syndrome, and chronic pelvic pain syndrome.
Experimental Kunming mice (purchased by Xiamen University Laboratory Animal Center from Shanghai SLAC Laboratory Animal Co., Ltd) were in an experimental environment with free access to food and water for 1 week. The mice were fasted for 24 h before administration. The compound to be evaluated (10 mg/kg) was administered to the mice by intraperitoneal injection at 1 h before administration of acetic acid, wherein the positive control drug indometacin was administered at a dose of 20 mg/kg, and the blank control was normal saline. Acetic acid (50 μL, acetic acid dissolved in normal saline, at a concentration of 5%) was administered to the mice by intraperitoneal injection, and the mice were then placed in the observation cage. A video camera was used to record the behavior of the mice in the following 20 min. Pain-related behavior was analyzed statistically based on torsion times of the mice in said period.

[7] = tested on: headache caused by nitroglycerin; assay: Nitroglycerin-induced headache rat model; format: in vivo, Wistar rats; settings: rats, 10 mg/kg i.p. 1 h before nitroglycerin (FIG. 5)
Experimental: as §1
Nitroglycerin-induced headache rat model was a common model for studying inflammatory pain medically. The model was used in the invention to evaluate the therapeutic effects of the compounds on headache. The model can represent mixed pain including, but not only limited to: migraine, cluster headache, tension headache syndrome, prosopodynia, lumbodynia, shoulder pain, burning mouth syndrome, and complex regional pain syndrome.
Experimental Wistar rats with a body weight of about 250 g for each (purchased from Shanghai SLAC Laboratory Animal Co., Ltd) were in an experimental environment with free access to food and water for 1 week. The rats were fasted for 24 h before administration. The compound to be evaluated (10 mg/kg) was intraperitoneally injected to the rat at 1 h before the administration of nitroglycerin, wherein the positive control drug was indomethacin and the blank control was normal saline. Nitroglycerin (10 mg/kg, nitroglycerin dissolved in normal saline, at a concentration of 5%) was injected at epidermis of the rat neck, and the rats were then placed in the observation cage. A video camera was used to record the behavior of the rats in the following 60 min. Pain-related behavior was analyzed statistically based on the times that the rat scratched its head in said period.

[8] = tested on: SNI neuropathic pain; assay: Neuropathic pain mouse model induced by spared nerve injury (SNI); format: in vivo, C57BL/6 mice; settings: SNI mice, 10 mg/kg intraperitoneal, 1 h and 4 h after administration (FIGS. 1 and 2)
Experimental: as §1
Neuropathic pain mouse model induced by spared nerve injury (SNI) is a common animal model for studying neuropathic pain medically. The invention uses the model to evaluate the therapeutic effects of the compounds on neuropathic pain, wherein the model can represent peripheral neuropathic pain including, but not limited to post-herpetic neuralgia, pain caused by diabetic perineuropathy, neurothlipsis and exudation caused by tumor, lumbar surgery failure syndrome, neuropathic pain caused by lumbar disc protrusion, postpartum neuralgia, trigeminal neuralgia, chemotherapy-induced multiple neuropathic pain, post-radiotherapy plexopathy, and radicular neuralgia.
C57BL/6 mice (purchased from Shanghai SLAC Laboratory Animal Co., Ltd) were anesthetized by intraperitoneal injection with pentobarbital sodium (40 mg/kg), and skin from knee joint to gluteal region was subjected to skin preparation and disinfection. After the mice were fixed, the knee joint part was cut about 1 cm longitudinally with bistoury, and muscle tissues were separated by blunt dissection to expose sciatic nerve. The tibial and common peroneal nerve branches of sciatic nerve stem were cut off carefully, and the cut was then stitched up. The mice was placed in a clean observation cage. In the sham-operation group, only sciatic nerve was exposed without cutting the tibial and common peroneal nerve branches. From the day before the experiment to 24 h after the operation, the plantar edges of the mice were stimulated everyday by […] (Ugo Basile Company (Italy), Product ID: 37450), and data was collected automatically to obtain the threshold value of mice to mechanical stimulation. […] The positive control drug gabapentin was administered at a dose of 100 mg/kg. All the agents to be injected were dissolved in a mixed solvent of PEG400:Tween 80:normal saline (at a volume ratio of 5:5:90), at a concentration of 5 mg/mL. By comparing the threshold values (the acting force of when the mouse retracting the paw) at different administration time in different administration groups, the compound was evaluated for its analgesic effect on neuropathic pain.

[9] = target: N-acylethanolamide hydrolyzing acid amidase (NAAA) (Rattus norvegicus, UniProt Q5KTC7); assay: Endocannabinoid hydrolase activity: NAAA inhibition (17:1 FAE hydrolysis, LC-MS); format: biochemical
Sequence of N-acylethanolamide hydrolyzing acid amidase (NAAA) (Q5KTC7 34-130 limits assumed): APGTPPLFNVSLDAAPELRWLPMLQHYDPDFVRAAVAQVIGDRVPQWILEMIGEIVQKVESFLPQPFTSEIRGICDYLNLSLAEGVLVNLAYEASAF
Sequence of N-acylethanolamide hydrolyzing acid amidase (NAAA) (Q5KTC7 131-362 limits assumed): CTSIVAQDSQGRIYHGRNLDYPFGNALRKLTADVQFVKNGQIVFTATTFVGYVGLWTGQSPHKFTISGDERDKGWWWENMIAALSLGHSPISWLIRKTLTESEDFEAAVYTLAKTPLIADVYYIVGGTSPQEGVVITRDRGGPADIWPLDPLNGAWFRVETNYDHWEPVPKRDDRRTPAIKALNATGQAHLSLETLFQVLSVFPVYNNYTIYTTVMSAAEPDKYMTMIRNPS
Experimental: The preparation method was as followed: a plasmid (pCDNA3.1/NAAA or pCDNA3.1/FAAH) carrying a whole NAAA/FAAH gene was constructed, wherein the plasmid carried Cytomegalovirus (CMV) promoter and Neomycin selectable gene; the plasmid was transformed into HEK-293 cell via lipid medium, stable cell lines expressing NAAA/FAAH at a high level were obtained by G418 screening and Western-blot method. HEK-293 recombinant cells were cultured and collected, washed with PBS for 2-3 times, and ultrasonically treated in 20 mM Tris-HCl containing 0.32 M sucrose, then repeatedly frozen and thawed twice, and then centrifuged at 4° C., 800 g for 15 min. The supernatant (i.e., the desired protein) was collected, the protein concentration was determined by BCA method, and the protein was diluted to a concentration of 1 mg/mL, and sub-packaged and stored in a refrigerator at −80° C. for further use.
The reaction was carried out at 37° C. for 10 min. 170 μL buffer (the buffer consisted of 50 mM disodium Hydrogen Phosphate, 0.1% Triton X-100, 3 mM DTT, 150 μL) containing enzymatic hydrolysis substrate (the substrate was a heptadecenoyl ethanolamine containing a double bond and 17 carbon atoms, abbreviated as 17:1 FAE) was further added, wherein the concentration of 17:1 FAE was 5 μM. The reaction was carried out at 37° C. for 30 min, and 200 μL methanol solution containing internal standard (the internal standard was margaric acid, at a concentration of 1 nmol) was then added to stop the reaction. LC-MS was used to determine the yield of the hydrolysate 17:1 FA (i.e., a heptadecenoic acid containing a double bond) of 17:1 FAE, then a graph was plotted with Graphpad Prism 5. Thereby, the IC50 of the test compound on endocannabinoid hydrolase was determined.

[10] = target: hERG potassium channel (Homo sapiens (Human), UniProt Q12809); assay: hERG potassium channel automated patch clamp in CHO-hERG cells
Sequence of hERG potassium channel (Q12809 whole entry): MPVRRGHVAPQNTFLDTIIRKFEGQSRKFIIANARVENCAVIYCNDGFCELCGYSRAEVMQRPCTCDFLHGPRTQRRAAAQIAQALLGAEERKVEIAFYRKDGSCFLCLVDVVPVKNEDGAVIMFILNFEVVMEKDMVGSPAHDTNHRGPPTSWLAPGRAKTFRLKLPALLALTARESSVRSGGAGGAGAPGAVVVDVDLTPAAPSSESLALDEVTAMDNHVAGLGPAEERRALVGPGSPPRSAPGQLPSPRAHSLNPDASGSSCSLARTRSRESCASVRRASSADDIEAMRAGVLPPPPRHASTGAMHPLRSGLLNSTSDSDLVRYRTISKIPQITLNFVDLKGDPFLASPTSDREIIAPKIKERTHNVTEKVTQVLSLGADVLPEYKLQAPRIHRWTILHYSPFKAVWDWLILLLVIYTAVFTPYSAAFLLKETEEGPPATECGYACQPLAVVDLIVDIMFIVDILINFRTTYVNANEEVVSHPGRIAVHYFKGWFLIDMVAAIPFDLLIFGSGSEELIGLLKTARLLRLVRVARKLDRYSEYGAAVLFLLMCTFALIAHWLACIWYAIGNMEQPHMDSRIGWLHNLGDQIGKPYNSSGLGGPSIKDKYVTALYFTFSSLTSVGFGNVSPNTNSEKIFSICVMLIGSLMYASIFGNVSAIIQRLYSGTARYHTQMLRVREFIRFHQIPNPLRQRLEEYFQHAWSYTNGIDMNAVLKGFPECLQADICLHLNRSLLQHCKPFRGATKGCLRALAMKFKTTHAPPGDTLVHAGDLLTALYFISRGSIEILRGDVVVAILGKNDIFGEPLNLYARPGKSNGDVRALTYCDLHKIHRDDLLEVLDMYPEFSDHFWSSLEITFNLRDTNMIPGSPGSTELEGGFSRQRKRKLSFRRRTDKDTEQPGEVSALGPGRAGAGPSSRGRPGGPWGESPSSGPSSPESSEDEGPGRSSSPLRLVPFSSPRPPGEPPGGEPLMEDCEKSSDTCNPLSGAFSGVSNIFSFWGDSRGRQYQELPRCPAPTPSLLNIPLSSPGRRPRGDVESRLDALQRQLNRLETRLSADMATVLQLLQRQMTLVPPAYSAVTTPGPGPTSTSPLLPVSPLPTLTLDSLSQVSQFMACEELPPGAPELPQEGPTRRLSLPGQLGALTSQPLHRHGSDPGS
Experimental: CHO-hERG cells (purchased from ATCC) were incubated in a culture flask. When the cell density reached 60˜80%, the culture medium (Glutamax DMEM/F12 medium (Gibco, Shanghai) containing 10% fetal bovine serum) was removed. The cells were washed with 7 mL PBS once, and then digested by adding 3 mL Detachin cell dissociation buffer. After complete digestion, the resultant mixture was neutralized by adding 7 mL culture medium, and centrifuged. The supernatant was removed with a pipette, 5 mL culture medium was added to re-suspend the cells to ensure a cell density of 2˜5×10^6/mL.
Intracellular fluid and extracellular fluid were prepared as described in the following table.
A certain amount of compound was dissolved in […] at the following concentrations, to prepare the stock solution of compound. 2 μL stock solution of compound was added to 998 μL extracellular fluid, and was subjected to 5-fold serial dilution in extracellular fluid containing 0.2% DMSO to get the final concentrates to be tested.
Single cell giga-seal and formation of whole-cell mode were automatically performed by Sophion Qpatch HT fully automated cell patch clamp systems. After obtaining the whole-cell recording mode, the cell was clamped at −80 mV. The cell first underwent pre-voltage of −50 mV for 50 msec, then underwent depolarization stimulation at 20 mV for 5 sec, and then underwent repolarization at −50 mV for 5 sec, and then the voltage return to −80 mv. The cell underwent the stimulation at the voltage every 15 sec, and the data were recorded for 2 min, then extracellular fluid was administered, and then the data were recorded for 2 min. Then, the administration process begun. The concentration of a test compound started from the lowest concentration, each test concentration was administered for 2 min. […] At least three cells were tested for each concentration (n≥3). The experimental data was analyzed by XLFit software.

[11] = PBS pH 5.0, 37° C., read-out: Half-life pH 5.0
[12] = PBS pH 7.4, 37° C., read-out: Half-life pH 7.4

| Compound | half-life at 1 μM [3, 11] | half-life at 1 μM [3, 12] | half-life [4] | half-life at 2 μM [5] | IC50 [9] | further results |
| --- | --- | --- | --- | --- | --- | --- |
| C[C@@H]1OC(=O)[C@@H]1NC(=O)OCCCCCc1ccccc1 [ARN077] |  |  |  |  |  | analgesic effects on allodynia compared with gabapentin ([1]; sciatic nerve ligation, ARN077 1%, 20 μL, epidermal, gabapentin 50 mg/kg oral): better analgesic effects on allodynia than the positive control agent gabapentin; effect on inflammatory and neuropathic pain ([1]; topical administration): significantly inhibit inflammatory pain induced by carrageenan and neuropathic pain caused by sciatic nerve ligation; IC50 [2]: 0.127 µM |
| O=C(CCCCCc1cccc(F)c1)N1CCOC1=O [Compound 8, 3-Fluorophenylhexanoyl Oxazolidinone] | > 24 h | > 24 h | 1.55 h | 2.75 h |  |  |
| CC(=O)C[C@@H]1COC(=O)N1C(=O)CCCCCc1cccc(C)c1 [Compound 11] | > 24 h | > 24 h | 3.07 h | 4.45 h |  |  |
| O=C1OCCN1C(=O)C1CCC(Cc2ccccc2)CC1 (centres unmarked) [Compound 24, 4-Benzylcyclohexanoyl Oxazolidinone] |  |  |  |  |  | effect of inhibiting abdominal inflammatory pain [6]: did not exhibit any effect of inhibiting abdominal inflammatory pain; effect of inhibiting nitroglycerin-induced headache [7]: did not exhibit any effect of inhibiting headache in rats; effect of inhibiting central neuropathic pain [8]: did not exhibit any effect of inhibiting central neuropathic pain |
| N[C@H]1CC(=O)N(C(=O)CCCCCc2ccccc2)C1 [Compound 30] |  |  |  |  |  | effect of inhibiting abdominal inflammatory pain [6]: did not exhibit any effect of inhibiting abdominal inflammatory pain; effect of inhibiting nitroglycerin-induced headache [7]: did not exhibit any effect of inhibiting headache in rats; effect of inhibiting central neuropathic pain [8]: did not exhibit any effect of inhibiting central neuropathic pain |
| O=C(CCCCCC1CCCNC1)N1CCOC1=O (centres unmarked) [Compound 34, Piperidin-3-yl-hexanoyl Oxazolidinone] |  |  |  |  |  | IC50 [10]: > 40 µM |

Continued, in another order:

| half-life at 1 μM [3, 11] | half-life at 1 μM [3, 12] | half-life [4] | half-life at 2 μM [5] | IC50 [9] | Compound | further results |
| --- | --- | --- | --- | --- | --- | --- |
| > 24 h | > 24 h | 1.23 h | 2.2 h |  | O=C(CCCCCc1ccc(O)cc1)N1CCOC1=O [Compound 31, 4-Hydroxyphenylhexanoyl Oxazolidinone] |  |
|  |  |  |  | 0.35 µM | Cc1cccc(CCCCCC(=O)N2CCOC2=O)c1 [Compound 32, 3-Methylphenylhexanoyl Oxazolidinone] |  |
|  |  |  |  | 0.44 µM | Cc1ccc(CCCCCC(=O)N2CCOC2=O)cc1 [Compound 33, 4-Methylphenylhexanoyl Oxazolidinone] |  |
| > 24 h | > 24 h | 2.92 h | 5.33 h | 0.68 µM | O=C1OCCN1C(=O)c1ccc(Oc2ccccc2)cc1 [Compound 41, 4-Phenoxybenzoyl Oxazolidinone] |  |
